# From patent US20230416203A1, “POTENT AND SELECTIVE INHIBITORS OF THE CALCIUM-ACTIVATED POTASSIUM CHANNEL, KCA3.1, FOR USE AS PLATFORM THERAPEUTICS” (priority 2020, published 2023)
# Assays:
# KV1.2 = biological target: T1, KV1.2 (Rattus norvegicus, UniProt P63142); test: Potassium channels patch-clamp (QPatch), KV1.2; type: cell-based
# T1 construct: expressed in transfected cells; host or cells: B82
# Description: (§1) The effects of Group 4 compounds on related potassium channels were evaluated by patch-clamp using a QPatch HTX automated electrophysiology platform (Sophion, Denmark). The giga-seal and whole-cell requirements for the automated electrophysiology were the following: minimum seal resistance=0.1 GO, holding potential=−80 mV, holding pressure=−20 mbar; and positioning pressure=−70 mbar.
# [1] = biological target: CaV1.2 channel over KCa3.1 (Homo sapiens, UniProt Q13936); test: in vitro; conditions: pH 7.4
# Sequence of CaV1.2 channel over KCa3.1 (Q13936 whole entry): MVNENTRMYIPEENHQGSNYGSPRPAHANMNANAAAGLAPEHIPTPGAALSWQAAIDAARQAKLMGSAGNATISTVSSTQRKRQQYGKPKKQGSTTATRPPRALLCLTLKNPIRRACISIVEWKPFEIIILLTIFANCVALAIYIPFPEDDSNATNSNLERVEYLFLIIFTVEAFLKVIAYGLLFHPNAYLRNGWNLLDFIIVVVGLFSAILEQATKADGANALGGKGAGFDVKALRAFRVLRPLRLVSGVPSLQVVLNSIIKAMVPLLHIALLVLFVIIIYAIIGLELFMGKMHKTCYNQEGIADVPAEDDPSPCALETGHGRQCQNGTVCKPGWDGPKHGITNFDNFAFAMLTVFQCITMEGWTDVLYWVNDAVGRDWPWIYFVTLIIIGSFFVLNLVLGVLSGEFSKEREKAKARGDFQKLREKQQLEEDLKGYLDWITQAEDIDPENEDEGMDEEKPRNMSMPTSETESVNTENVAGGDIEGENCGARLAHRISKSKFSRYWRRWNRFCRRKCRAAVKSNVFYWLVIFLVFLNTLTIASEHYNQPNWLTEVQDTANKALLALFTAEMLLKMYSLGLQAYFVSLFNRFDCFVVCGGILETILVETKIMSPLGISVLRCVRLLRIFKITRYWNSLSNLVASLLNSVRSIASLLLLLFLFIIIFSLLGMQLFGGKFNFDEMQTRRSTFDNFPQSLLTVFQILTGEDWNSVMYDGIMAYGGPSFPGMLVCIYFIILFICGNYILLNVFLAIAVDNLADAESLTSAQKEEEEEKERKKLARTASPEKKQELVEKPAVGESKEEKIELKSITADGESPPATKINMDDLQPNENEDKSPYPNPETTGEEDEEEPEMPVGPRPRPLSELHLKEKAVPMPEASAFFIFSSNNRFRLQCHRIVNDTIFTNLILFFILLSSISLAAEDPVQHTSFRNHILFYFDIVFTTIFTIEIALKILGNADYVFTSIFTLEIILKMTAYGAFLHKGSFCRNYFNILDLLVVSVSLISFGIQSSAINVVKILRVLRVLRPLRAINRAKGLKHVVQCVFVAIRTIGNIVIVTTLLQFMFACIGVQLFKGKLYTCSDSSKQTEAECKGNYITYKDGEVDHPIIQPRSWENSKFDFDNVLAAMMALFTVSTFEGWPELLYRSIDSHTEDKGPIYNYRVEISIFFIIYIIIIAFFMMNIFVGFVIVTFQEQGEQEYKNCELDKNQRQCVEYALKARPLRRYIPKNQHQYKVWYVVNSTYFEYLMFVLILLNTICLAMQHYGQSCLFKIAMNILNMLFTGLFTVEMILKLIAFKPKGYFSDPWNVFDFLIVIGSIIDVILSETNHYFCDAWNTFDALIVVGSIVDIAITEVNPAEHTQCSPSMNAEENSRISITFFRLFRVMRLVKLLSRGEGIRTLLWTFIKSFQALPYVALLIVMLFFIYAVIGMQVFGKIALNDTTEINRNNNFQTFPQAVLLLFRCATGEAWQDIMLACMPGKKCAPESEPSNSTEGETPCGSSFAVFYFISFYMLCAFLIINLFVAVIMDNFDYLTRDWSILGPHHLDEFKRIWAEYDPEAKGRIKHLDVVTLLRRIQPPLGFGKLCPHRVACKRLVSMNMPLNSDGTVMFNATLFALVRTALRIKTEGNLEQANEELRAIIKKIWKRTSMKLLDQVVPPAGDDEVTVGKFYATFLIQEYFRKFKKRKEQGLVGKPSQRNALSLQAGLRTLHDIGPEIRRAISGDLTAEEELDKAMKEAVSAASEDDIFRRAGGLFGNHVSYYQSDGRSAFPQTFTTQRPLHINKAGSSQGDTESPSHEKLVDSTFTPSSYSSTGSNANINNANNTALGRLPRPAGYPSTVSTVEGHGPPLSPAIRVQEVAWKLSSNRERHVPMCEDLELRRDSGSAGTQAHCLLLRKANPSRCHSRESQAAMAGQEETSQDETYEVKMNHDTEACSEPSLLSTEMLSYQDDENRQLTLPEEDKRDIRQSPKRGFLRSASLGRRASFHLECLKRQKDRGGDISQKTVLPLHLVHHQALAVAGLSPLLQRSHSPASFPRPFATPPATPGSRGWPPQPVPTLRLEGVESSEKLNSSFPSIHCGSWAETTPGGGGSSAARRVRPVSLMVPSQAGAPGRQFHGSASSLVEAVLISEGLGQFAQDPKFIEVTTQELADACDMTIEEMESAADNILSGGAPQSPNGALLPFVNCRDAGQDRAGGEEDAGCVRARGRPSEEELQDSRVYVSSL
# Description: (§3) The external solution contained (in mM): 140 TEA-Cl; 2 MgCl2; 10 CaCl2; 10 HEPES; and 5 D-glucose (pH=7.4). The internal solution contained (in mM): 120 CsCl; 1 MgCl2; 10 HEPES; 10 EGTA; 0.3 Na2-GTP; and 4 Mg-ATP (pH=7.2). Following establishment of the whole-cell configuration, CaV1.2 current was recorded at holding membrane potential of −80 mV and then depolarized to +10 mV (test pulse was modified slightly due to lead IV test) for 0.3 s. This protocol was repeated at 20 s intervals to observe the effect of the test compounds on the peak of CaV1.2 current. Each cell was incubated with each test compound for 5 min, or until the current reached steady-state. The compounds were applied at multiple concentrations from low to high. Each cell acted as its own control. The decreases in the peak currents were used to determine the IC50 for CaV1.2 inhibition. Curve-fitting and IC50 calculations were performed using IGOR software.
# CYP-IA2 = biological target: T2, CYP-IA2 (Homo sapiens, UniProt P05177); test: Cytochrome P450 enzymes inhibition assay, CYP-IA2; type: in vitro ADME; conditions: for CYP IC50/KCa3.1 IC50: CYP-IA2
# T2 construct: from tissue
# T2 sequence (P05177 1-516): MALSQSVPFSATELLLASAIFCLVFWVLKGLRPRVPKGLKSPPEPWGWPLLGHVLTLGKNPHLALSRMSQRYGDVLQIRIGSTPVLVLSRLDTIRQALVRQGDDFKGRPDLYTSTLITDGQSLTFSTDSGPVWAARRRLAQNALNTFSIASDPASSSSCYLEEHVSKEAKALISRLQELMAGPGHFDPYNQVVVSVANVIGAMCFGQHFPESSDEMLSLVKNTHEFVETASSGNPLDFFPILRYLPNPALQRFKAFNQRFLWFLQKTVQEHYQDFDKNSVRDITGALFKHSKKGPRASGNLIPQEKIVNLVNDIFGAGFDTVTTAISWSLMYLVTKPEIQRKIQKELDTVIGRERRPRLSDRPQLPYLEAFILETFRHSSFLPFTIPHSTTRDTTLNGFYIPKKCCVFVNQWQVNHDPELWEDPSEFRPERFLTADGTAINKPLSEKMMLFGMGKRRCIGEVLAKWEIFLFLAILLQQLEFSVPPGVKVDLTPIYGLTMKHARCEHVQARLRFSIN
# Description: (§2) The metabolite formation for each substrate under the above conditions was estimated using the following formula: Percent inhibition=[1−(test area ratio/control area ratio)]×100.
# [2] = Plasma protein binding assay (equilibrium dialysis), mouse plasma; type: in vitro ADME; conditions: pH 7.4
# Description: Human and mouse plasma (150 μL) containing test compound (3 μM, final concentration) and sodium phosphate buffer (150 μL, 100 mM, pH 7.4) were added to the equilibrium dialysis device and equilibrated at 37° C. for 4.5 h with constant shaking. After equilibration, 10 μL of the plasma was taken out from the first half of the well and mixed with 50 μL of blank buffer, and later quenched with 200 μL of 0.05% formic acid in ACN containing 100 ng/mL of Loperamide, Phenacetin & Tolbutamide as internal standards. Similarly, 50 μL of […] was taken from the second half of the well and mixed with 10 μL of blank […] before quenching. […] All samples were centrifuged at 14,000 rpm for 5 min at 4° C. Warfarin and naltrexone were used as positive controls. Supernatant of all samples were analyzed by LC-MS/MS.
# KCa1.1 = biological target: T3, KCa1.1 (Homo sapiens, UniProt Q12791); test: Potassium channels patch-clamp (QPatch), KCa1.1; type: cell-based
# T3 construct: expressed in transfected cells; host or cells: HEK
# T3 sequence (Q12791 whole entry): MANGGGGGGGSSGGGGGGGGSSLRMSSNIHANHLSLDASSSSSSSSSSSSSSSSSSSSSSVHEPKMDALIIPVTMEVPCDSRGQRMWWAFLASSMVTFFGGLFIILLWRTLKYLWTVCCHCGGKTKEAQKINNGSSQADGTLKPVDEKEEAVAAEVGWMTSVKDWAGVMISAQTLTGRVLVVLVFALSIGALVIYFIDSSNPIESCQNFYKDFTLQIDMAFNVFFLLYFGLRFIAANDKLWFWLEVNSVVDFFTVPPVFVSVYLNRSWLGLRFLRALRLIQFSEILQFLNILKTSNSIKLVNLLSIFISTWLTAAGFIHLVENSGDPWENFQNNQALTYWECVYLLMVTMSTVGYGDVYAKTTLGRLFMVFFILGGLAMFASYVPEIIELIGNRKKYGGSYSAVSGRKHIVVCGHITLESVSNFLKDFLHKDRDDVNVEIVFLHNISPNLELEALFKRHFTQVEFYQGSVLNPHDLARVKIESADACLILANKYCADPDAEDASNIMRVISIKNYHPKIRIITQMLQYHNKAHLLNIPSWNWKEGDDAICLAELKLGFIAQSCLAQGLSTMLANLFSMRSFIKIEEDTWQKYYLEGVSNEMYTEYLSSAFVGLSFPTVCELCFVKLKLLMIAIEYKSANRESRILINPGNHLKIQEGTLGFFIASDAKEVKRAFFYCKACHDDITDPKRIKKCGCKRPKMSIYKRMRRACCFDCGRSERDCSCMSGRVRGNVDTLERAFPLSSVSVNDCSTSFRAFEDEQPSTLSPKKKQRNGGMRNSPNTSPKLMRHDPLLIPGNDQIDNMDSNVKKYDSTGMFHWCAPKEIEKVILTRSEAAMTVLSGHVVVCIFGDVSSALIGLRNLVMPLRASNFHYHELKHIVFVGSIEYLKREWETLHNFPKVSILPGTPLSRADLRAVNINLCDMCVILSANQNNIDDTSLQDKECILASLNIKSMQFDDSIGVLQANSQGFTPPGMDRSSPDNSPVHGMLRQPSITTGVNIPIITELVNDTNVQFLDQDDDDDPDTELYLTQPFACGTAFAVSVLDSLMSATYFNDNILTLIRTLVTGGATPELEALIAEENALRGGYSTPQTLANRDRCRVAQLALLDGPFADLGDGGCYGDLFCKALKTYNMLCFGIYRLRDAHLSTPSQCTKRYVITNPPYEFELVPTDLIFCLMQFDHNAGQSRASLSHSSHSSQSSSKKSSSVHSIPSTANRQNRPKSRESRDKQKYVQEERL
# Description: as §1
# CYP-2D6 = biological target: T4, CYP-2D6 (Homo sapiens, UniProt P10635); test: Cytochrome P450 enzymes inhibition assay, CYP-2D6; type: in vitro ADME; conditions: for CYP IC50/KCa3.1 IC50: CYP-2D6
# T4 construct: from tissue
# T4 sequence (P10635 whole entry): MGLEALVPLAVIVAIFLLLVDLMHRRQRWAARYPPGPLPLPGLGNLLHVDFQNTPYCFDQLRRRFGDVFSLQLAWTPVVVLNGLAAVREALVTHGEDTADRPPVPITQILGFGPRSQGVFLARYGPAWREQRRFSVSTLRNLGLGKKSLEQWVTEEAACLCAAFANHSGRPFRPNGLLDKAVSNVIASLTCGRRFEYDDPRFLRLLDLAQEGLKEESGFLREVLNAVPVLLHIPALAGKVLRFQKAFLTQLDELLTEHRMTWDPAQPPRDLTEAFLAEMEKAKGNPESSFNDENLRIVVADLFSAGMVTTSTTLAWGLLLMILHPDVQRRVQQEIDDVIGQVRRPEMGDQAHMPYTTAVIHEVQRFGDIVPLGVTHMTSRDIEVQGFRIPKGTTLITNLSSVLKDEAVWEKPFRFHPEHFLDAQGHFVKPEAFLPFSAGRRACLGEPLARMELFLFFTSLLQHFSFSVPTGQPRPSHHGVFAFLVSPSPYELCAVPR
# Description: as §2
# CaV1.2 channel = CaV1.2 channel (Homo sapiens, UniProt Q13936); test: cell-based
# Sequence of CaV1.2 channel (Q13936 whole entry): as the sequence (Q13936 whole entry) above
# Description: as §3
# [3] = test system: panel of other molecular targets
# Description: The results are expressed as a percent inhibition of control specific binding [100-(measured specific binding/control specific binding*100)]. The IC50 values and Hill coefficients (nH) were determined by non-linear regression analysis of the competition curves generated with mean replicate values using Hill equation curve fitting performed with software developed at Cerep (Hill software) and validated by comparison with data generated by the commercial software SigmaPlot® 4.0.
# [4] = Solubility test (PBS, HPLC-UV); type: physicochemical; conditions: kinetic from dmso stock
# Description: Calibration standards at 1, 5, 10, 50, 100, 200 and 300 μM were prepared in DMSO from a 20 mM stock. […] The plate was covered and shook at 150 rotations per min for 90 min. At the end of 90 min, samples were filtered using MultiScreen HTS vacuum Manifold assembly and the filtrate was collected onto the acceptor plate. An aliquot (150 μL) of the filtrate from the above 96-well acceptor plate was transferred into HPLC vials and analyzed by HPLC-UV. Verapamil, ketoconazole and reserpine were used as high, medium and low soluble reference standards respectively.
# T1 sequence (P63142 whole entry): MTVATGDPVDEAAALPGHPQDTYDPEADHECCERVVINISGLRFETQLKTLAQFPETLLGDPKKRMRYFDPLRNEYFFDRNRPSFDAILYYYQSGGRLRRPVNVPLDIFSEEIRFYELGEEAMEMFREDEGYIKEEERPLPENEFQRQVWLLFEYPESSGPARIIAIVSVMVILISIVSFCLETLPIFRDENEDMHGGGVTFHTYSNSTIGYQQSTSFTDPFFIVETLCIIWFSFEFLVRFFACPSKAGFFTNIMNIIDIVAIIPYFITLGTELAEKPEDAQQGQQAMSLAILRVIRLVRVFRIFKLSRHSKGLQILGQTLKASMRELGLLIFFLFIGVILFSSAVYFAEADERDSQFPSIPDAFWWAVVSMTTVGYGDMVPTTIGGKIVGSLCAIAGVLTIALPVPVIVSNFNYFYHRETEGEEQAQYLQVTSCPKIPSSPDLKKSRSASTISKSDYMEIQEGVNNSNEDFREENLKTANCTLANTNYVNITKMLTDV
SMILES,IC50 (KV1.2) [µM],selectivity ratio [1],CYP IC50/KCa3.1 IC50 (CYP-IA2),IC50 (CYP-IA2; microsomes) [µM],"fraction unbound at 4.5 h, 3 μM [2]",IC50 (KCa1.1) [µM],CYP IC50/KCa3.1 IC50 (CYP-2D6),IC50 (CYP-2D6; microsomes) [µM],IC50 (CaV1.2 channel) [µM],selectivity for KCa3.1 over other channels and a panel of ~100 molecular targets [3] [fold],"solubility at 90 min ([4]; pH 1.5, aqueous buffer, PBS pH 1.5) [µM]","solubility at 90 min ([4]; pH 5, aqueous buffer, PBS pH 5.0) [µM]","solubility at 90 min ([4]; pH 7.4, aqueous buffer, PBS pH 7.4) [µM]"
COC(=O)C1=C(C)NC(C)=C(C(=O)OC)C1c1ccc(F)c(C(F)(F)F)c1 [Compound 101],> 10,200,558,9.1,0.0088,> 10,1226,> 20,3.2,,,,
"COC(=O)C1=CNC=C(C(=O)OC)C1c1ccc(F)c(C(F)(F)F)c1 [Compound 103, Dimethyl 4-(4-fluoro-3-(trifluoromethyl)phenyl)-1,4-dihydropyridine-3,5-dicarboxylate]",> 10,2210,3279,,,> 10,3279,,13.5,> 1000,54.6,58.1,≤ 87.4
